Results from US5126483A, “1-phenylalkyl-3-phenylurea derivatives” (Mitsubishi Kasei Corporation, priority 1989, dated 1992).

Assays:
[1] = test system: cholesterol level in serum; test: Effect of reducing a lipid level in blood: serum cholesterol in hamsters fed 1% cholesterol / 0.5% cholic acid diet; format: in vivo, golden Syrian hamster; conditions: once a day for 5 days, relative to control group
Procedure: The effect of reducing a lipid level in blood by the action of the compounds according to the present invention was determined as follows:
Male golden Syrian hamsters weighing from 80 to 100 g were randomly divided into groups. The hamsters were first fed standard laboratory diets (solid feed MF-1 for mouse/rat/hamster, manufactured by Oriental Yeast Industries, KK) for 3 days. Then, they were fed the experimental diet containing 1% cholesterol and 0.5% cholic acid (manufactured by Oriental Yeast Industries, KK), ad libitum. At the same time, the compounds of the invention formulated in a shown dose (0.1-10 mg/10 ml water/kg) were administrated to the animals orally once a day at a determined time for 5 days. Water was administrated orally to the hamsters of control group in an amount of 10 ml per 1 kg of body weight. After five days of administrating the compounds, the animals were anesthetized with Pentobarbital Na (Nembutal injection, manufactured by Dainabbot) and three hours after the final administration of the test compound, a blood sample was taken from abdominal cava. The serum was separated from the sample by centrifuging.
The cholesterol level in the serum was determined by using a blood cholesterol measuring kit, Determina-TC5 manufactured by Kyowa Medix Co. The results are represented by percent inhibition (%) of cholesterol level in serum relative to that of the control group, and shown in the following Table 2.

[2] = molecular target: acyl-CoA: cholesterol acyltransferase (ACAT); test: ACAT inhibitory action: cholesteryl-[14C] oleate formation in hamster microsomes; format: biochemical; conditions: radio-labelled oleoyl coenzyme A (14C)
Procedure: The ACAT inhibitory action of the compounds according to the present invention was measured as follows:
ACAT activity in the hamster microsomes was determined by measuring the rate of radio-active cholesteryl-[^14 C] oleate formation from cholesterol and radio-labelled oleoyl coenzyme A (^14 C) with or without test compound.
Calculations of IC50 value were made using data of the percent inhibition at each compound concentration.

[3] = Mesocricetus auratus, po, 120 h, 0.1 mg/kg, read-out: Percent inhibition of cholesterol in serum
[4] = Mesocricetus auratus, po, 120 h, read-out: Percent inhibition of cholesterol in serum

Compound	inhibition in vivo at 1 mg/kg [1, 4]	further results
CCCCCC(CNC(=O)Nc1c(C(C)C)cccc1C(C)C)c1cccc(OC)c1OC (single isomer, unassigned; (+)) [Example 50, (+)-1-(2-(2,3-dimethoxyphenyl)heptyl)-3-(2,6-diisopropylpehyl)urea]		inhibition in vivo at 0.1 mg/kg [1, 3]: 18%
CCCCCC(CNC(=O)Nc1c(C(C)C)cccc1C(C)C)c1cccc(OC)c1OC (single isomer, unassigned; (-)) [Example 51, (-)-1-(2-(2,3-dimethoxyphenyl)heptyl)-3-(2,6-diisopropylpheyl)urea]		Percent inhibition of cholesterol in serum ([1]; 0.1 mg/kg, oral): 25%
CCCCC(CNC(=O)Nc1c(C(C)C)cccc1C(C)C)c1ccccc1C (stereo not drawn) [Example 9]	19%	IC50 [2]: 4.9 nM
CCCCCC(CNC(=O)Nc1c(C(C)C)cccc1C(C)C)c1cccc(C)c1 (stereo not drawn) [Example 12]	43%	IC50 [2]: 26 nM
CCCCC(CNC(=O)Nc1c(C(C)C)cccc1C(C)C)c1cccc(CC)c1 (stereo not drawn) [Example 15]	36%	
CCCCC(CNC(=O)Nc1c(C(C)C)cccc1C(C)C)c1ccc(C)cc1 (stereo not drawn) [Example 19]	36%	
CCCCC(CNC(=O)Nc1c(C(C)C)cccc1C(C)C)c1ccc(C)c(C)c1C (stereo not drawn) [Example 24]	39%	
CCCCCC(CNC(=O)Nc1c(C(C)C)cccc1C(C)C)c1cccc(OC)c1 (stereo not drawn) [Example 29]	36%	
CCCCC(CNC(=O)Nc1c(C(C)C)cccc1C(C)C)c1cccc(OC)c1OC (stereo not drawn) [Example 32]	43%	
CCCCCC(CNC(=O)Nc1c(C(C)C)cccc1C(C)C)c1cccc(OC)c1OC (stereo not drawn) [Example 33]		inhibition in vivo at 0.1 mg/kg [1, 3]: 24%; IC50 [2]: 16 nM
CCCCCCC(CNC(=O)Nc1c(C(C)C)cccc1C(C)C)c1ccc(OC)c(OC)c1 (stereo not drawn) [Example 36]	26%	
CCCCC(CNC(=O)Nc1c(C(C)C)cccc1C(C)C)c1cccc(Cl)c1 (stereo not drawn) [Example 40]	38%	IC50 [2]: 31 nM
CCCCC(CNC(=O)Nc1c(C(C)C)cccc1C(C)C)Cc1ccc(Cl)cc1 (stereo not drawn) [Example 49]		inhibition in vivo at 10 mg/kg ([1]; Mesocricetus auratus, po, 120 h, 10 mg/kg (footnote 2), read-out: Percent inhibition of cholesterol in serum): 33%
CC(C)c1cccc(C(C)C)c1NC(=O)NCC(c1ccccc1)C(C)(C)C (stereo not drawn) [compound 1, 1-(3,3-dimethyl-2-phenylbutyl)-3-(2,6-diisopropyl-phenyl)urea, reference compound]		inhibition in vivo at 5 mg/kg ([1]; Mesocricetus auratus, po, 120 h, 5 mg/kg, read-out: Percent inhibition of cholesterol in serum): 5%
